# What was measured:
# barnyardgrass [1] = test: Test A preemergence; type: in vivo, Echinochloa crus-galli; conditions: preemergence
# Outline: (§1)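 Visual injury rating, 0–100 (0 no effect, 100 complete control), vs untreated controls ~10 days after treatment in greenhouse. Pre: directed soil spray on seeded loam/sand. Post: 2–10 cm plants, 1–2 leaf stage. Formulation: non-phytotoxic solvent mix + surfactant.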
# barnyardgrass [2] = test: Test A postemergence; type: in vivo, Echinochloa crus-galli
# Outline: as §1
# pigweed = test: Test A postemergence; type: in vivo, Amaranthus retroflexus
# Outline: as §1
# nutsedge, yellow = test: Test C preemergence; type: in vivo, Cyperus esculentus; conditions: for Nutsedge, Yellow plant response rating / Plant response rating, Nutsedge, Yellow: preemergence; for Plant response rating, Nutsedge, Yellow: 125 g ai/ha, scale 0 to 100, 0 = no effect, 100 = complete control
# Outline: (§2)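 Scores of 0 (no effect) to 100 (complete control) were assigned by eye after 13–15 days, comparing treated pots with controls. Soil-applied (preemergence) treatments went onto seeds in loam and sand; foliar (postemergence) treatments onto 1- to 4-leaf plants in peat medium.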
# soybean [3] = test: Test C preemergence; type: in vivo, Glycine max; conditions: for Soybean plant response rating / Plant response rating, Soybean: preemergence; for Plant response rating, Soybean: 125 g ai/ha, scale 0 to 100, 0 = no effect, 100 = complete control
# Outline: as §2
# oilseed rape [4] = test: Test C preemergence; type: in vivo, Brassica napus; conditions: for Oilseed Rape plant response rating / Plant response rating, Oilseed Rape: preemergence; for Plant response rating, Oilseed Rape: 125 g ai/ha, scale 0 to 100, 0 = no effect, 100 = complete control
# Outline: as §2
# velvetleaf [5] = test: Test C preemergence; type: in vivo, Abutilon theophrasti; conditions: for Velvetleaf plant response rating / Plant response rating, Velvetleaf: preemergence; for Plant response rating, Velvetleaf: 125 g ai/ha, scale 0 to 100, 0 = no effect, 100 = complete control
# Outline: as §2
# wheat = test: Test C postemergence; type: in vivo, Triticum aestivum; conditions: for Plant response rating (scale of 0 to 100 where 0 is no effect and 100 is complete control), Wheat: Postemergence, 31 g ai/ha, visually evaluated after 13 to 15 days; for Wheat plant response rating / Plant response rating, Wheat: postemergence; for Wheat plant response rating: 62 g ai/ha, scale 0 to 100
# Outline: as §2
# corn = test: Test C postemergence; type: in vivo, Zea mays; conditions: for Plant response rating (scale of 0 to 100 where 0 is no effect and 100 is complete control), Corn: Postemergence, 31 g ai/ha, visually evaluated after 13 to 15 days; for Corn plant response rating / Plant response rating, Corn: postemergence; for Corn plant response rating: 62 g ai/ha, scale 0 to 100
# Outline: as §2
# soybean [6] = test: Test C postemergence; type: in vivo, Glycine max; conditions: for Plant response rating (scale of 0 to 100 where 0 is no effect and 100 is complete control), Soybean: Postemergence, 31 g ai/ha, visually evaluated after 13 to 15 days; for Soybean plant response rating / Plant response rating, Soybean: postemergence; for Soybean plant response rating: 62 g ai/ha, scale 0 to 100
# Outline: as §2
# barnyardgrass [7] = test: Test C postemergence; type: in vivo, Echinochloa crus-galli; conditions: for Plant response rating (scale of 0 to 100 where 0 is no effect and 100 is complete control), Barnyardgrass: Postemergence, 31 g ai/ha, visually evaluated after 13 to 15 days; for Barnyardgrass plant response rating / Plant response rating, Barnyardgrass: postemergence; for Barnyardgrass plant response rating: 62 g ai/ha, scale 0 to 100
# Outline: as §2
# oilseed rape [8] = test: Test C postemergence; type: in vivo, Brassica napus; conditions: for Plant response rating (scale of 0 to 100 where 0 is no effect and 100 is complete control), Oilseed Rape: Postemergence, 31 g ai/ha, visually evaluated after 13 to 15 days; for Oilseed Rape plant response rating / Plant response rating, Oilseed Rape: postemergence; for Oilseed Rape plant response rating: 62 g ai/ha, scale 0 to 100
# Outline: as §2
# velvetleaf [9] = test: Test C postemergence; type: in vivo, Abutilon theophrasti; conditions: for Plant response rating (scale of 0 to 100 where 0 is no effect and 100 is complete control), Velvetleaf: Postemergence, 31 g ai/ha, visually evaluated after 13 to 15 days; for Velvetleaf plant response rating / Plant response rating, Velvetleaf: postemergence; for Velvetleaf plant response rating: 62 g ai/ha, scale 0 to 100
# Outline: as §2
# [10] = 125 g ai/ha, visual injury, 0 to 100 scale, approx. 10 days
# [11] = 500 g ai/ha, visual injury after approx. 10 days, 0 to 100 scale (0 no effect, 100 complete control)
# [12] = Postemergence, 500 g ai/ha, 0 to 100 scale (0 no effect, 100 complete control)
# [13] = postemergence, 125 g ai/ha, about 10 days, visual rating on 0 to 100 scale (0 no effect, 100 complete control)
# [14] = 31 g ai/ha, visual rating, scale 0 to 100 (0 no effect, 100 complete control), 13 to 15 days
# [15] = 62 g ai/ha, scale 0 to 100 (0 no effect, 100 complete control), 13 to 15 days
# [16] = 250 g ai/ha, scale 0 to 100 (0 no effect, 100 complete control)
# [17] = 125 g ai/ha, scale 0 to 100, 0 no effect, 100 complete control
# [18] = 250 g ai/ha, scale 0 to 100, 0 is no effect, 100 is complete control
smiles,measurement,setting,value
CCOc1cc(C(=O)NCC(F)(F)F)nn1Cc1ccnc(OC(F)F)c1 [Compound 128],Barnyardgrass plant response rating,barnyardgrass [1]; [10],100
same,Barnyardgrass plant response rating,barnyardgrass [1]; [11],100
same,Barnyardgrass plant response rating,barnyardgrass [2]; [12],100
same,Barnyardgrass plant response rating,barnyardgrass [2]; [13],100
same,Pigweed plant response rating,pigweed; [12],100
same,Pigweed plant response rating,pigweed; [13],100
same,"Plant response rating (scale of 0 to 100), Nutsedge, Yellow","nutsedge, yellow; Preemergence, 250 g ai/ha",90
same,"Nutsedge, Yellow plant response rating","nutsedge, yellow; [14]",45
same,"Nutsedge, Yellow plant response rating","nutsedge, yellow; [15]",75
same,"Plant response rating, Nutsedge, Yellow","nutsedge, yellow; 13 to 15 days",80
same,"Plant response rating (scale of 0 to 100), Soybean","soybean [3]; Preemergence, 250 g ai/ha",90
same,Soybean plant response rating,soybean [3]; [14],35
same,Soybean plant response rating,soybean [3]; [15],55
same,"Plant response rating, Soybean",soybean [3]; 13 to 15 days,80
same,"Plant response rating (scale of 0 to 100), Oilseed Rape","oilseed rape [4]; Preemergence, 250 g ai/ha",100
same,Oilseed Rape plant response rating,oilseed rape [4]; [14],100
same,Oilseed Rape plant response rating,oilseed rape [4]; [15],100
same,"Plant response rating, Oilseed Rape",oilseed rape [4]; 13 to 15 days,100
same,"Plant response rating (scale of 0 to 100), Velvetleaf","velvetleaf [5]; Preemergence, 250 g ai/ha",100
same,Velvetleaf plant response rating,velvetleaf [5]; [14],5
same,Velvetleaf plant response rating,velvetleaf [5]; [15],100
same,"Plant response rating, Velvetleaf",velvetleaf [5]; 13 to 15 days,100
same,"Plant response rating (scale of 0 to 100 where 0 is no effect and 100 is complete control), Wheat",wheat,5
same,Wheat plant response rating,wheat,5
same,"Plant response rating, Wheat",wheat; [16],5
same,"Plant response rating, Wheat",wheat; [17],10
same,"Plant response rating (scale of 0 to 100 where 0 is no effect and 100 is complete control), Corn",corn,5
same,Corn plant response rating,corn,5
same,"Plant response rating, Corn",corn; [16],30
same,"Plant response rating, Corn",corn; [17],10
same,"Plant response rating (scale of 0 to 100 where 0 is no effect and 100 is complete control), Soybean",soybean [6],65
same,Soybean plant response rating,soybean [6],95
same,"Plant response rating, Soybean",soybean [6]; [16],98
same,"Plant response rating, Soybean",soybean [6]; [17],95
same,"Plant response rating (scale of 0 to 100 where 0 is no effect and 100 is complete control), Barnyardgrass",barnyardgrass [7],5
same,Barnyardgrass plant response rating,barnyardgrass [7],5
same,"Plant response rating, Barnyardgrass",barnyardgrass [7]; [16],60
same,"Plant response rating, Barnyardgrass",barnyardgrass [7]; [17],15
same,"Plant response rating (scale of 0 to 100 where 0 is no effect and 100 is complete control), Oilseed Rape",oilseed rape [8],50
same,Oilseed Rape plant response rating,oilseed rape [8],60
same,"Plant response rating, Oilseed Rape",oilseed rape [8]; [16],90
same,"Plant response rating, Oilseed Rape",oilseed rape [8]; [17],60
same,"Plant response rating (scale of 0 to 100 where 0 is no effect and 100 is complete control), Velvetleaf",velvetleaf [9],10
same,Velvetleaf plant response rating,velvetleaf [9],15
same,"Plant response rating, Velvetleaf",velvetleaf [9]; [16],65
same,"Plant response rating, Velvetleaf",velvetleaf [9]; [17],35
CCCNC(=O)c1cc(OCC)n(Cc2ccnc(OC(F)F)c2)n1 [Compound 136],Barnyardgrass plant response rating,barnyardgrass [1]; [10],100
same,Barnyardgrass plant response rating,barnyardgrass [1]; [11],100
same,Barnyardgrass plant response rating,barnyardgrass [2]; [12],90
same,Barnyardgrass plant response rating,barnyardgrass [2]; [13],70
same,Pigweed plant response rating,pigweed; [12],100
same,Pigweed plant response rating,pigweed; [13],80
same,"Nutsedge, Yellow plant response rating","nutsedge, yellow; [14]",30
same,"Nutsedge, Yellow plant response rating","nutsedge, yellow; [15]",35
same,"Plant response rating, Nutsedge, Yellow","nutsedge, yellow; 13 to 15 days",50
same,"Nutsedge, Yellow plant response rating","nutsedge, yellow; [18]",85
same,Soybean plant response rating,soybean [3]; [14],45
same,Soybean plant response rating,soybean [3]; [15],75
same,"Plant response rating, Soybean",soybean [3]; 13 to 15 days,95
same,Soybean plant response rating,soybean [3]; [18],100
same,Oilseed Rape plant response rating,oilseed rape [4]; [14],100
same,Oilseed Rape plant response rating,oilseed rape [4]; [15],100
same,"Plant response rating, Oilseed Rape",oilseed rape [4]; 13 to 15 days,100
same,Oilseed Rape plant response rating,oilseed rape [4]; [18],100
same,Velvetleaf plant response rating,velvetleaf [5]; [14],65
same,Velvetleaf plant response rating,velvetleaf [5]; [15],100
same,"Plant response rating, Velvetleaf",velvetleaf [5]; 13 to 15 days,100
same,Velvetleaf plant response rating,velvetleaf [5]; [18],100
same,"Plant response rating (scale of 0 to 100 where 0 is no effect and 100 is complete control), Wheat",wheat,5
same,Wheat plant response rating,wheat,5
same,"Plant response rating, Wheat",wheat; [16],15
same,"Plant response rating, Wheat",wheat; [17],10
same,"Plant response rating (scale of 0 to 100 where 0 is no effect and 100 is complete control), Corn",corn,10
same,Corn plant response rating,corn,10
same,"Plant response rating, Corn",corn; [16],25
same,"Plant response rating, Corn",corn; [17],15
same,"Plant response rating (scale of 0 to 100 where 0 is no effect and 100 is complete control), Soybean",soybean [6],90
same,Soybean plant response rating,soybean [6],70
same,"Plant response rating, Soybean",soybean [6]; [16],95
same,"Plant response rating, Soybean",soybean [6]; [17],95
same,"Plant response rating (scale of 0 to 100 where 0 is no effect and 100 is complete control), Barnyardgrass",barnyardgrass [7],5
same,Barnyardgrass plant response rating,barnyardgrass [7],5
same,"Plant response rating, Barnyardgrass",barnyardgrass [7]; [16],45
same,"Plant response rating, Barnyardgrass",barnyardgrass [7]; [17],5
same,"Plant response rating (scale of 0 to 100 where 0 is no effect and 100 is complete control), Oilseed Rape",oilseed rape [8],60
same,Oilseed Rape plant response rating,oilseed rape [8],60
same,"Plant response rating, Oilseed Rape",oilseed rape [8]; [16],85
same,"Plant response rating, Oilseed Rape",oilseed rape [8]; [17],70
same,"Plant response rating (scale of 0 to 100 where 0 is no effect and 100 is complete control), Velvetleaf",velvetleaf [9],30
same,Velvetleaf plant response rating,velvetleaf [9],55
same,"Plant response rating, Velvetleaf",velvetleaf [9]; [16],85
same,"Plant response rating, Velvetleaf",velvetleaf [9]; [17],60
